Reference: patent US20250137032A1, “TWO-COMPONENT SYSTEMS FOR USE IN CELL-FREE GENE EXPRESSION” (priority 2023, published 2025)
Entries after “also recorded” stand apart in the source; their conditions may differ.

Key:
NarX [1] = target: T1, NarX (Escherichia coli, UniProt P0AFA2, T450I/V366A); assay: Cell-free NarX-L nitrate sensing, nanoluciferase reporter luminescence; assay type: biochemical, E. coli
T1 construct: All genes were; made in house; host or cells: cell-free expression in situ, myTXTL E. coli extract (Arbor Biosciences), with synthetic lipid vesicles
T1 sequence (P0AFA2 other isoform, or with tags, fused parts or gaps V366A/T450I): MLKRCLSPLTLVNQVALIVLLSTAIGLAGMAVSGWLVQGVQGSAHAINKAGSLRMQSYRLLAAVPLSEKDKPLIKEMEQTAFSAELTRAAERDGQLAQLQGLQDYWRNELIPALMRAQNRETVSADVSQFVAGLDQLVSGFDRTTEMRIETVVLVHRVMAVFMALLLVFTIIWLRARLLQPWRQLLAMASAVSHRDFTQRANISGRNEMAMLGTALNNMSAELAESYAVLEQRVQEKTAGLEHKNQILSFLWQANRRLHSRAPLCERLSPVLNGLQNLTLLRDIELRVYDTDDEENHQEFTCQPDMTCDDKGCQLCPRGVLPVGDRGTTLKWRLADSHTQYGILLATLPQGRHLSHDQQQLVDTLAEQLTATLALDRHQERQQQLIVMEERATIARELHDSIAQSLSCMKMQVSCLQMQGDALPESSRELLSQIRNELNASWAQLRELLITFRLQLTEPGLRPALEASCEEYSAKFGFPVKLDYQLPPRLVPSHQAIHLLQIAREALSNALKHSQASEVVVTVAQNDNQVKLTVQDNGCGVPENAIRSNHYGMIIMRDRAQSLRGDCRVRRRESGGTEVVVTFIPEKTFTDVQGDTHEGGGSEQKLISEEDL
Text: As a first step towards understanding how TCSs can be integrated into cell-free systems, we tested the functional expression of NarX and NarL. The analyte for this sensor, nitrate, is a known ground water contaminate (30), serves as a convenient input, and previous work has characterized and engineered NarL mutants and its cognate promoter (26), ensuring that downstream gene transcription is a result of cell-free expressed NarL. We assembled cell-free reactions containing the myTXTL system (31), three DNA templates, liposomes, and assessed the reactions in response to nitrate addition. Two templates contained genes for either NarX or a NarL mutant (26) under the control of T7 RNA polymerase. The third template served as a genetic reporter for TCS signaling and contained a reporter gene (nanoluciferase) under the control of a promoter to which NarL binds (32). Finally, we included 100 nm lipid vesicles composed of 1,2-dimyristoyl-sn-glycero-3-phosphocholine (DMPC) into which NarX could integrate (FIG. 1A). Upon addition of nitrate, NarX should phosphorylate NarL, which should then bind the reporter plasmid and induce downstream luciferase expression (FIG. 1A).
(§1) Protein expression was performed using the myTxTl system (Arbor Biosceinces). 5 μL reactions were assembled with 10 mM lipid, 0.1 nM plasmid encoding T7 RNA polymerase, 9.9 nM plasmids encoding NarX, NarL, and reporter gene (nano luciferase or GFP) in specified ratios, and various concentration of ligands. Cell-free reactions were allowed to progress at 30° C. for 16 hours. Luciferase luminescence was read using the NanoGlo luciferase system and GFP fluorescence (ex. 480 nm, em. 507 nm) was read using a Molecular Devices Spectra Max i3 plate reader. To calculate fold change, luminescence values in the presence of nitrate were divided by the luminescence values in the absence of nitrate for each replicate.

NarX [2] = target: T1, NarX; assay: Cell-free NarX-L system encapsulated in giant unilamellar vesicles; assay type: biochemical, E. coli; details: 1 mM nitrate, GUVs of POPC:cholesterol with rhodamine lipid, 30° C. 16 hours, with RNase
Text: Over the last decade, many promising cell-free systems have been developed, enabling the delivery and sensing of a wide array of ligands in non-ideal environments. Cell-free systems have been encapsulated and administered to mice (47), lyophilized and used in resource limited settings (6, 7), and integrated into wearable materials to sense environmental contaminants (8). Towards the goal of creating cell-mimetic particles which can sense environmental stimuli in complex environments, such as the body, we encapsulated our cell-free system into giant unilamellar vesicles using the emulsion transfer method (FIG. 5A). We encapsulated cell-free extract containing plasmids encoding NarX, NarL, and the downstream protein (luciferase or mEGFP) into membranes composed of 1 POPC: 1 cholesterol and a rhodamine conjugated lipid. We hypothesized that by encapsulating cell-free reaction components into vesicles, NarX could insert into membranes and initiate signaling in response to exogenously added nitrate. […]
For samples containing the luciferase plasmid, 0.5 μL of NanoGlo Luciferase substrate was added to the reaction, and reactions were read on a Molecular Devices Spectra Max i3 plate reader. […] Images were analyzed using the Nikon NIS software.

[3] = system: cell-free protein synthesis; assay: Cell-free protein synthesis (myTXTL): NarX western blot band intensity and luminescence; assay type: biochemical, E. coli; details: increasing ligand concentration; NarX band intensity / luminescence (FIG. 7, FIG. 14)
Experimental: as §1
1 μL of cell-free reaction was diluted to 15 μL in Laemlli buffer and heated at 95° C. for 10 minutes. Samples were then loaded and run on a 12% Mini-PROTEAN TGX Precast Protein Gel (Bio-Rad) at 150 V for 90 minutes. Wet transfer was performed onto a PVDF membrane (Bio-Rad) for 45 min at 100 V. Membranes were then blocked for an hour at room temperature in 5% milk in TBST (pH 7.6:50 mM Tris, 150 mM NaCl, HCl to pH 7.6, 0.1% Tween) and incubated for 1 hour at room temperature or overnight at 4° C. with primary solution (anti-Flag (Sigma F1804) or anti-Myc (ab32), diluted 1:1000 in 5% milk in TBST). Primary antibody solution was decanted, and the membrane was washed three times for 5 minutes in TBST and then incubated in secondary solution at room temperature for 1 hour (HRP-anti-Mouse (CST 7076) diluted 1:3000 in 5% milk in TBST). Membranes were then washed in TBST and incubated with Clarity Western ECL Substrate (Bio-Rad) for 5 min. Blots were imaged using an Azure Biosystems c280 imager and band intensities were quantified with ImageJ.

NarX [4] = target: T1, NarX; assay: Lyophilized NarX-L reactions rehydrated in non-ideal media; assay type: biochemical, E. coli; details: 100 μM nitrate; rehydrated with Milli-Q water, lake water or FBS; 30° C.
Experimental: As a control, we flash froze reactions and allowed them to proceed without lyophilization. […] To remediate this, we lyophilized vesicles and reactions separately. When rehydrating reactions, we rehydrated vesicles with water and then mixed the rehydrated vesicles, lyophilized cell-free components, and rehydration media (water, lake water, or FBS) with or without 100 μM nitrate. We then allowed reactions to proceed at 30° C. […] To deploy biosensors out of the lab, one must understand how quickly they are able to sense a ligand. […] We furthermore envision that these systems could be leveraged to engineer targeted drug delivery systems or for point-of-use biosensing.
Cell-free reactions were prepared as above, omitting vesicles and ligand. Reactions and vesicles were then flash frozen and lyophilized overnight. Following lyophilization, vesicles were rehydrated in water and cell free reactions were rehydrated in various media, such as Mili-Q water, Lake Water from Lake Michigan, and 50% FBS containing either 100 μM nitrate or an equivalent volume of water. Vesicles and reactions were allowed to rehydrate for 30 minutes on ice. Finally, vesicles were added to each reaction to bring the total volume to 5 μL and reactions were allowed to proceed at 30° C. for 16 hours.

[5] = Dynamic light scattering of 100% POPC vesicles in the presence of ligands (liposome stability); assay type: physicochemical; details: 100% POPC vesicles in the presence of 1 mM ligand

O=[N+]([O-])[O-].[Na+] [Nitrate, sodium nitrate]
increase in luminescence in nitrate titration (NarX [1]; absence of vesicles (FIG. 1C)): 2 fold | increase in luminescence compared to reactions run in the absence of nitrate (NarX [1]; all components present, DMPC vesicles (FIG. 1B)): ~3 fold | time to differentiate a positive from a negative signal (luminescence over time) (NarX [1]; nitrate sample vs water sample, p<0.03, n=2 (FIG. 18)): 6.5 h | nitrate concentration at which the cell-free system lost sensitivity (NarX [1]; nitrate titration): 10 mM | detection of nitrate at levels as low as (NarX [1]; nitrate titration, cell-free system): 10 µM | specificity of activation by ligand (NarX [1]; wild-type NarX, nitrate vs nickel (FIG. 4F)): specifically turn ‘on’ | sensing of exogenously added nitrate by encapsulated sensor (microscopy and bulk plate reader) (NarX [2]): able to sense exogenous nitrate | effect on cell-free protein expression [3]: inhibit protein synthesis; also recorded: inhibits protein expression | sensing of nitrate after lyophilization and rehydration (NarX [4]): could sense 100 μM nitrate in all conditions | Diameter (nm) [5]: 123.26 nm | P.D.I. [5]: 0.278
